Results: patent US20240238423A9, “TETRAHYDROISOQUINOLINE HETEROBIFUNCTIONAL BCL-XL DEGRADERS” (Treeline Biosciences, Inc., priority 2022, published 2024)
Read-outs that look alike come from different tables or passages of the source.

Target: T1, Human BCL-XL protein (N-terminal HiBiT tagged BCL-XL in HT1080 cells) (Homo sapiens, UniProt Q07817)
T1 construct: expressed in transfected cells; host or cells: HT-1080 (ATCC CCL-121), stably transduced with lentivirus pLV-UBC-N-HiBiT-BCL-XL-PGK-puro and selected with puromycin
T1 sequence (Q07817 whole entry): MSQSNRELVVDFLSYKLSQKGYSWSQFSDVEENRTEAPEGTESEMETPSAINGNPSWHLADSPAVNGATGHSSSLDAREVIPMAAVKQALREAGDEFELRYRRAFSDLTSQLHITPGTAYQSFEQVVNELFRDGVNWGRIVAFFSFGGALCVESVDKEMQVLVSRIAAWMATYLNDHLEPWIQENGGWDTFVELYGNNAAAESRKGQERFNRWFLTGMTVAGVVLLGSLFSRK
Assay: HiBiT based degradation assay
Type: cell-based
Details: HT1080 cells expressing HiBiT-BCL-XL; for Ymin (24 h) / Ymin (6 h): BCL-XL degradation normalized with DMSO control; for DC50: BCL-XL degradation
How it was run: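 This HiBiT degradation assay measured loss of BCL-XL in HT1080 cells that stably express an N-terminal HiBiT-BCL-XL fusion delivered by lentivirus. Cells were added to compound-spotted 384-well plates, and luminescence was read on a PHERAstar FSX reader. Signal was expressed relative to DMSO controls, curves were fitted by four-parameter logistic regression, and for hook-shaped curves the Ymin point served as the bottom plateau when calculating EC50.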

Compound | Ymin (24 h) | DC50 (24 h, read-out: EC50 (24 h)) | Ymin (6 h) | DC50 (6 h, read-out: EC50 (6 h))
Cc1c(OCCC2CCN(CCN3CCN(c4ccc5c(C6CCC(=O)NC6=O)nn(C)c5c4)CC3)CC2)cccc1-c1ccc(N2CCc3cccc(C(=O)Nc4nc5ccccc5s4)c3C2)nc1C(=O)O (stereo not shown) [Compound 232, 6-[8-(1,3-benzothiazol-2-ylcarbamoyl)-3,4-dihydro-1H-isoquinolin-2-yl]-3-[3-[2-[1-[2-[4-[3-(2,6-dioxo-3-piperidyl)-1-methyl-indazol-6-yl]piperazin-1-yl]ethyl]-4-piperidyl]ethoxy]-2-methyl-phenyl]pyridine-2-carboxylic acid] | A (Ymin < 50%) | < 0.1 µM | – | –
Cc1c(OCCC2CCN(CCN3CCN(c4cccc5c(C6CCC(=O)NC6=O)nn(C)c45)CC3)CC2)cccc1-c1ccc(N2CCc3cccc(C(=O)Nc4nc5ccccc5s4)c3C2)nc1C(=O)O (stereo not shown) [Compound 233, 6-[8-(1,3-benzothiazol-2-ylcarbamoyl)-3,4-dihydro-1H-isoquinolin-2-yl]-3-[3-[2-[1-[2-[4-[3-(2,6-dioxo-3-piperidyl)-1-methyl-indazol-7-yl]piperazin-1-yl]ethyl]-4-piperidyl]ethoxy]-2-methyl-phenyl]pyridine-2-carboxylic acid] | A (Ymin < 50%) | < 0.1 µM | – | –
Cc1c(Oc2ccc(CC(F)(F)CN3CCN(c4ccc5c(C6CCC(=O)NC6=O)nn(C)c5c4)CC3)cc2)cccc1-c1ccc(N2CCc3cccc(C(=O)Nc4nc5ccccc5s4)c3C2)nc1C(=O)O (stereo not shown) [Compound 234, 6-[8-(1,3-benzothiazol-2-ylcarbamoyl)-3,4-dihydro-1H-isoquinolin-2-yl]-3-[3-[4-[3-[4-[3-(2,6-dioxo-3-piperidyl)-1-methyl-indazol-6-yl]piperazin-1-yl]-2,2-difluoro-propyl]phenoxy]-2-methyl-phenyl]pyridine-2-carboxylic acid] | B (50% ≤ Ymin < 70%) | < 0.1 µM | C (Ymin ≥ 70%) | 0.1 to 1 µM
Cc1c(OCCCCN2CCC(CN3CCN(c4ccc5c(C6CCC(=O)NC6=O)nn(C)c5c4)CC3)CC2)cccc1-c1ccc(N2CCc3cccc(C(=O)Nc4nc5ccccc5s4)c3C2)nc1C(=O)O (stereo not shown) [Compound 235, 6-[8-(1,3-benzothiazol-2-ylcarbamoyl)-3,4-dihydro-1H-isoquinolin-2-yl]-3-[3-[4-[4-[[4-[3-(2,6-dioxo-3-piperidyl)-1-methyl-indazol-6-yl]piperazin-1-yl]methyl]-1-piperidyl]butoxy]-2-methyl-phenyl]pyridine-2-carboxylic acid] | A (Ymin < 50%) | < 0.1 µM | – | –
Cc1cc(OCCCC2CCN(CC(=O)Nc3cccc4c(C5CCC(=O)NC5=O)nn(C)c34)CC2)ccc1-c1ccc(N2CCc3cccc(C(=O)Nc4nc5ccccc5s4)c3C2)nc1C(=O)O (stereo not shown) [Compound 236, 6-(8-(Benzo[d]thiazol-2-ylcarbamoyl)-3,4-dihydroisoquinolin-2(1H)-yl)-3-(4-(3-(1-(2-((3-(2,6-dioxopiperidin-3-yl)-1-methyl-1H-indazol-7-yl)amino)-2-oxoethyl)piperidin-4-yl)propoxy)-2-methylphenyl)picolinic acid] | B (50% ≤ Ymin < 70%) | < 0.1 µM | B (50% ≤ Ymin < 70%) | < 0.1 µM
Cc1c(OCCCCCCCCCN2CCN(c3cccc4c(C5CCC(=O)NC5=O)nn(C)c34)CC2)cccc1-c1ccc(N2CCc3cccc(C(=O)Nc4nc5ccccc5s4)c3C2)nc1C(=O)O (stereo not shown) [Compound 237, 6-[8-(1,3-benzothiazol-2-ylcarbamoyl)-3,4-dihydro-1H-isoquinolin-2-yl]-3-[3-[9-[4-[3-(2,6-dioxo-3-piperidyl)-1-methyl-indazol-7-yl]piperazin-1-yl]nonoxy]-2-methyl-phenyl]pyridine-2-carboxylic acid] | – | – | A (Ymin < 50%) | < 0.1 µM
